Patent US5583000A, “Protease-binding compounds and methods of use” (priority 1993, dated 1996)
≈ marks a conversion by molar mass, not a printed value. Where two headings read alike, the source gives them in different places. Square brackets hold non-standard residues; d marks the D form. Ends that are not written are not given here. Peptide text beside a SMILES is read from it. * marks the point of attachment. Sta = CC(C)C[C@H](N)[C@@H](O)CC(=O)O; Isovaleryl = CC(C)CC(=O)*

How the values were obtained:
HIV-1 PR C95M = HIV-1 PR C95M (Human immunodeficiency virus type 1 group M subtype B, UniProt P03369, C585M); assay: Protection experiment, incorporation of radio-labelled UCSF84; format: binding; conditions: for incorporation after preincubation of the enzyme: preincubation 10 μM, then radio-labelled UCSF84
HIV-1 PR Q7K = HIV-1 PR Q7K (Human immunodeficiency virus type 1 group M subtype B, UniProt P03369, Q497K); format: biochemical
HIV-1 PR [1] = target: T1, HIV-1 PR (Human immunodeficiency virus type 1 group M subtype B, UniProt P03369); assay: biochemical; format: binding; conditions: preincubation 10 μM one hour, then radio-labelled UCSF84 200 μM
HIV-2 PR [2] = target: T2, HIV-2 PR (Human immunodeficiency virus type 2 subtype A, UniProt P04584); assay: biochemical; format: biochemical; conditions: for KI (inactivation): inhibitor concentration resulting in half-maximal inactivation, pH 8.0, 25° C., read-out: kinact (μM) HIV-2; for kinact: pH 8, maximum inactivation rate, read-out: Vinact (min^-1 × 10^3) HIV-2 (converted)
T2 construct: HIV-2 PR (at a final concentration of 30 μg/mL); made in house
T2 sequence (P04584 514-612 limits assumed): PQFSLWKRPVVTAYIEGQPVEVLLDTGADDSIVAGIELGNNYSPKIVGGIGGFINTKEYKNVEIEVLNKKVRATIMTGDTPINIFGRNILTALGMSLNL

HIV-2 PR [3] = target: T2, HIV-2 PR; assay: Protection experiment, incorporation of radio-labelled UCSF84; format: binding
HIV-1 protease [4] = target: T3, HIV-1 protease (Human immunodeficiency virus type 1 group M subtype B, UniProt P03369); assay: biochemical; conditions: for IC50: HIV-1 Protease IC50 (μM) 1M NaCl
HIV-2 protease = target: T4, HIV-2 protease (Human immunodeficiency virus type 2 subtype A, UniProt P04584); assay: biochemical
T4 construct: the coding region of the 99-amino acid protease; made in house; host or cells: Saccharomyces cerevisiae strain AB110, plasmid pHIV2PR115
T4 sequence (P04584 514-612 limits assumed): as above

HIV-1 protease [5] = target: T3, HIV-1 protease; format: cell-based; set-up: fused to amino acids 5 (Asp) to 179 (Trp) of the pol region; human superoxide dismutase (hSOD, 153 residues) (N); Phe-Arg-Glu are pol residues) (N); additional Pro residue of pol (C); expressed in transfected cells; host or cells: E. coli strain D1210 harboring plasmid pSOD/PR179
HIV-1 PR [6] = target: T1, HIV-1 PR; conditions: pH 8
in vitro [7] = conditions: african green monkey, cos-7 cells
Experimental: (§1) MTT cell viability assay. This is a quantitative colorimetric assay for mammalian cell survival and proliferation. Cells were seeded in 96 well plates and grown to near 50% confluency. A serial dilution (1 to 500 μM) of each compound was then prepared in culture media and added (250 μL/well) in duplicate. All culture media was adjusted to a final concentration of 1.0% DMSO (volume basis). The cells were allowed to grow for either 4 hours or 24 hours. The culture media were then removed, and the cells were washed with phosphate buffered saline (PBS) before 50 μL of MTT solution (1 mg/mL in PBS) was added. After incubating for 4 hours at 37° C., the reaction was quenched by adding 160 μL of acidified isopropanol and mixing to dissolve purple crystals. The absorbance was determined within 30 minutes at 570 nm on an ELISA plate reader.
(§2) The cytotoxic effect of the inhibitors was determined using the MTT stain viability assay.

p24 = p24 core antigen ELISA of virus from treated COS-7 cells
Experimental: Drug treatment. The compounds were added 48 hours post-transfection, at the peak of virus production, and the incubation was restricted to a 4-hour period. […] Culture media were adjusted to the desired concentration of these compounds just prior to the addition of the media to cells. To avoid precipitation, the compounds were aliquoted first to a tube in sufficient DMSO to yield a 1.0% final concentration, and subsequently the culture medium was added quickly and vortexed. The culture medium was collected after 4 hours of incubation of the cells with each of the compounds. This culture supernatant is the source of virus for measurement of infectivity as well as levels of p24 and other capsid proteins.
p24 Core antigen ELISA assay. An ELISA kit purchased from NEN/Dupont was used to determine the amount of p24 present in culture media or virus preparations. This capture assay uses a monoclonal antibody that preferentially binds p24 while it reacts with larger capsid protein precursors to a very limited extent. The assay was carded out using the manufacturer's indications. Samples were pre-treated with 1% Triton to inactivate the virus.
Virus isolation by ultracentrifugation. The culture medium was filtered through a 0.45 μm syringe filter and was then centrifuged to remove any precipitate. The medium was then spun through a cushion of 20% sucrose in PBS in an SW41 Beckman rotor for 1.5 hours at 35K and 4° C. The pelleted material was collected.
Following incubation of virus-producing cells with various concentrations of the test compounds, the virus particles were isolated by ultracentrifugation. These particles were disrupted using Triton X-100 and the amount of p24 capsid protein was quantitated by ELISA.

in vitro [8] = assay: in vitro
Experimental: Cytotoxicity. The MTT assay was performed as follows:
The cells were seeded in 96-well plates and grown overnight to near 50% confluency. A serial dilution (1 to 500 μM) of each compound in culture media was prepared and 250 μL/well was added in duplicate. The cells were allowed to grow for various periods of time (6, 24, 48 hours) and any precipitation of compounds in the wells was noted. The assay was performed by removing 200 μL of the culture media and adding 25 μL of MTT solution (2 mg/mL in phosphate buffered saline (PBS)). This was incubated for 4 hours at 37° C. and live cells began to turn purple while the solution remained yellow. To quench the reaction and solubilize the reaction product, 160 μL of acidified isopropanol (4 mL 1N HCl for 96 mL alcohol) were added and the resulting mixture was mixed vigorously to dissolve purple crystals. Absorbance was determined at 550-570 nm on an ELISA plate reader within 0.5-2 hours. […] To obtain the LD50 values for each compound, the concentration at which the absorbance is haft of that for the untreated cells was determined.

HIV-1 PR [9] = target: T1, HIV-1 PR; conditions: pH 8; remark: listed apart in the source
Experimental: Once full inhibition was achieved, the enzyme was isolated by reverse phase HPLC on a C3 -Zorbax Protein Plus column (4.6 mm×25 cm), using a 100-minute linear gradient from 5 to 65% acetonitrile in 0.1% TFA. The flow rate was 1 mL/min and the eluent was monitored at 220 nm. The two major components of the isolated sample were concentrated under vacuum, dissolved in a small volume of 50% acetonitrile and 1% acetic acid, and their molecular weights determined by electrospray mass spectrometry. The spectra were recorded on a VG EIectrospray. Mass Spectrometer Model Bio-Q.

HIV = assay: HeLa/T4 infectivity assay with replication-defective virions from transfected COS-7 cells; format: cell-based; conditions: Human immunodeficiency virus 1, HeLaT4; 100 μM, 4-hour treatment; read-out: Hela/T4 Infection % Colony Reduction
[10] = MTT cell viability assay (Tables 5 and 7); conditions: african green monkey, cos-7 cells
Experimental: as §1, §2

HIV protease = HIV protease (Human immunodeficiency virus type 1 group M subtype B, UniProt P04585); conditions: cited from earlier work
[11] = read-out: kinact (μM) HIV-1; inhibitor concentration resulting in half-maximal inactivation; pH 8.0, 25° C.

In the case of `O=[N+]([O-])c1ccc(OCC2CO2)cc1` (centres unmarked) [EPNP, 1,2-epoxy-3-(p-nitrophenoxy)-propane, reference compound], the “incorporation after preincubation of the enzyme” value (HIV-1 PR C95M) is reported as “sharply reduced”, the KI (inactivation) (HIV-1 PR Q7K; inhibitor concentration resulting in half-maximal inactivation; pH 8.0, 25° C.; read-out: kinact (μM) HIV-1) is reported as 9900 ± 1000 µM and the inhibition at 10 µM (HIV-1 PR [1]; 1 h, pH 8, read-out: blocking of radioactivity incorporation to HIV-1 PR) is reported as about 50%. The KI (inactivation) (HIV-2 PR [2]) was 6700 ± 600 µM, the kinact (HIV-2 PR [2]) was 0.0482 min⁻¹ and the “radioactivity incorporation after preincubation” value (HIV-2 PR [3]) was “almost complete elimination of radioactivity incorporation”.
For `OC(CCCN1CCC(O)(c2ccc(Cl)cc2)CC1)c1ccc(F)cc1` (centres unmarked) [UCSF2], the solubility (physchem) was over 250 µM, the “HIV-1 Protease Therapeutic Index (LD50 /IC50)” value (HIV-1 protease [4]) was 0.5 and the IC50 (HIV-1 protease [4]) was 200 µM. The IC50 (HIV-2 protease) was 700 µM and the “inhibition of protein processing (intermediate bands)” value (HIV-1 protease [5]) was “An increase in the band representing an intermediate in the vicinity of the 29-kDa marker”.
For `OC1(c2ccc(Cl)cc2)CCN(CC#CC2(c3ccccc3)CO2)CC1` (centres unmarked) [UCSF84], the solubility (physchem) was over 250 µM, the “incorporation of radioactivity relative to HIV-1 PR” value (HIV-1 PR C95M; 200 μM, one hour, 25° C.) was “approximately 50%” and the “reversibility of inhibition after dilution and buffer exchange” value (HIV-1 PR [6]) was “irreversible modification of the enzyme”. For the same compound, the IC50 (HIV-1 protease [4]) was 150 µM, the KI (inactivation) (HIV-1 PR Q7K; [11]) was 521 ± 56.6 µM and the CC50 at 4 h (in vitro [7]) was 120 µM. For the same compound, the CC50 at 24 h (in vitro [7]) was 50 µM, the IC50 (p24; read-out: Reduction of p24 IC50, 4 hours incubation, ELISA) was 50 µM and the KI (inactivation) (HIV-2 PR [2]) was 283 ± 9.3 µM. For the same compound, the kinact (HIV-2 PR [2]) was 0.0146 min⁻¹ and the CC50 at 6 h (in vitro [8]) was 100 to 165 µM.
With `O=C(C#CCN1CCC(O)(c2ccc(Cl)cc2)CC1)c1cccc(-c2ccccc2)c1` [UCSF142, 4-(4'-(4"-chlorophenyl)-4'-hydroxypiperidinyl)-1-m-biphenylbut-2-yn-1-one] the solubility (physchem) was 100 µM (≈ 43 µg/mL), the “molecules of inhibitor bound per HIV-1 protease (molecular weight 11,649)” value (HIV-1 PR [9]) was “two molecules” and the “HIV-1 Protease Therapeutic Index (LD50 /IC50)” value (HIV-1 protease [4]) was 0.56. For the same compound, the IC50 (HIV-1 protease [4]) was 63 µM, the KI (inactivation) (HIV-1 PR Q7K; [11]) was 10.7 ± 1.3 µM and the CC50 at 4 h (in vitro [7]) was 35 µM. For the same compound, the CC50 at 24 h (in vitro [7]) was under 5 µM, the KI (inactivation) (HIV-2 PR [2]) was 8.6 ± 1 µM and the kinact (HIV-2 PR [2]) was 0.0097 min⁻¹. For the same compound, the CC50 at 6 h (in vitro [8]) was 35 µM.
`C/C=C/C/C=C/CCC(=O)[C@H]1O[C@H]1C(N)=O` [cerulenin, reference compound] gave an inhibition at 100 µM (HIV) of 77%, a cytotoxicity at 4 h, 100 µM [10] of 0% and a CC50 at 4 h (in vitro [7]) of 900 µM. The activity at 100 µM (p24; Human immunodeficiency virus 1, COS-7, 4 h, read-out: % p24 Relative to Untreated) was 36%, the “inhibition of protein processing (35-kDa and 38-kDa intermediates)” value (HIV-1 protease [5]; 500 μM, 15 minutes (FIG. 11b)) was “no detectable inhibition” and the “inhibition of protein processing (intermediate bands)” value (HIV-1 protease [5]; 500 μM, 120 minutes (FIG. 11c)) was “protein processing inhibition”.
For `CC(C)CC(=O)N[C@H](C(=O)N[C@H](C(=O)N[C@@H](CC(C)C)[C@@H](O)CC(=O)N[C@@H](C)C(=O)N[C@@H](CC(C)C)[C@@H](O)CC(=O)O)C(C)C)C(C)C` [pepstatin A] (Isovaleryl-VV[Sta]A[Sta]-OH), the “inhibition of protein processing by HIV protease” value (HIV protease) is given as “partially inhibit protein processing”.
For “Val-Ser-Asn-Ler-.psi.[CH(OH)CH2 ]-Val-Ile-Val (VSNLVIV; numbers in words are those of the source; also: Leu-Val peptide bond replaced by hydroxyethylene isostere ψ[CH(OH)CH2]) [Compound U-85548]”, the “incorporation after preincubation of the enzyme” value (HIV-1 PR C95M) was “sharply reduced” and the “blocking of radioactivity incorporation to HIV-1 PR” value (HIV-1 PR [1]) was “approximately 65%”.
